{
  "source": "BigSolDB 2.1",
  "data": [
    {"smiles": "CN1CCN(c2c(F)cc3c(=O)c(C(=O)O)cn4c3c2OCN4C)CC1", "values": [
      {"measurement": "solubility (mole fraction)", "setting": "in 1,4-dioxane, 288.15 K", "result": 0.000114},
      {"measurement": "solubility (mole fraction)", "setting": "in 1,4-dioxane, 293.15 K", "result": 0.000132},
      {"measurement": "solubility (mole fraction)", "setting": "in 1,4-dioxane, 298.15 K", "result": 0.000153},
      {"measurement": "solubility (mole fraction)", "setting": "in 1,4-dioxane, 303.15 K", "result": 0.000188},
      {"measurement": "solubility (mole fraction)", "setting": "in 1,4-dioxane, 308.15 K", "result": 0.00023},
      {"measurement": "solubility (mole fraction)", "setting": "in 1,4-dioxane, 313.15 K", "result": 0.00028},
      {"measurement": "solubility (mole fraction)", "setting": "in 1,4-dioxane, 318.15 K", "result": 0.000348},
      {"measurement": "solubility (mole fraction)", "setting": "in 1,4-dioxane, 323.15 K", "result": 0.000427},
      {"measurement": "solubility (mole fraction)", "setting": "in 1,4-dioxane, 328.15 K", "result": 0.000512},
      {"measurement": "solubility (mole fraction)", "setting": "in THF, 288.15 K", "result": 0.000432},
      {"measurement": "solubility (mole fraction)", "setting": "in THF, 293.15 K", "result": 0.000508},
      {"measurement": "solubility (mole fraction)", "setting": "in THF, 298.15 K", "result": 0.000591},
      {"measurement": "solubility (mole fraction)", "setting": "in THF, 303.15 K", "result": 0.00068},
      {"measurement": "solubility (mole fraction)", "setting": "in THF, 308.15 K", "result": 0.000777},
      {"measurement": "solubility (mole fraction)", "setting": "in THF, 313.15 K", "result": 0.000887},
      {"measurement": "solubility (mole fraction)", "setting": "in THF, 318.15 K", "result": 0.001},
      {"measurement": "solubility (mole fraction)", "setting": "in THF, 323.15 K", "result": 0.00113},
      {"measurement": "solubility (mole fraction)", "setting": "in THF, 328.15 K", "result": 0.00125},
      {"measurement": "solubility (mole fraction)", "setting": "in acetone, 283.15 K", "result": 0.000219},
      {"measurement": "solubility (mole fraction)", "setting": "in acetone, 288.15 K", "result": 0.000266},
      {"measurement": "solubility (mole fraction)", "setting": "in acetone, 293.15 K", "result": 0.000316},
      {"measurement": "solubility (mole fraction)", "setting": "in acetone, 298.15 K", "result": 0.000367},
      {"measurement": "solubility (mole fraction)", "setting": "in acetone, 303.15 K", "result": 0.000425},
      {"measurement": "solubility (mole fraction)", "setting": "in acetone, 308.15 K", "result": 0.000488},
      {"measurement": "solubility (mole fraction)", "setting": "in acetone, 313.15 K", "result": 0.00057},
      {"measurement": "solubility (mole fraction)", "setting": "in acetone, 318.15 K", "result": 0.000678},
      {"measurement": "solubility (mole fraction)", "setting": "in acetone, 323.15 K", "result": 0.000796},
      {"measurement": "solubility (mole fraction)", "setting": "in acetonitrile, 283.15 K", "result": 0.000122},
      {"measurement": "solubility (mole fraction)", "setting": "in acetonitrile, 288.15 K", "result": 0.000147},
      {"measurement": "solubility (mole fraction)", "setting": "in acetonitrile, 293.15 K", "result": 0.000172},
      {"measurement": "solubility (mole fraction)", "setting": "in acetonitrile, 298.15 K", "result": 0.000213},
      {"measurement": "solubility (mole fraction)", "setting": "in acetonitrile, 303.15 K", "result": 0.00025},
      {"measurement": "solubility (mole fraction)", "setting": "in acetonitrile, 308.15 K", "result": 0.000298},
      {"measurement": "solubility (mole fraction)", "setting": "in acetonitrile, 313.15 K", "result": 0.000345},
      {"measurement": "solubility (mole fraction)", "setting": "in acetonitrile, 318.15 K", "result": 0.000422},
      {"measurement": "solubility (mole fraction)", "setting": "in acetonitrile, 323.15 K", "result": 0.000509},
      {"measurement": "solubility (mole fraction)", "setting": "in ethanol, 283.15 K", "result": "6.66e-05"},
      {"measurement": "solubility (mole fraction)", "setting": "in ethanol, 288.15 K", "result": "7.84e-05"},
      {"measurement": "solubility (mole fraction)", "setting": "in ethanol, 293.15 K", "result": "9.47e-05"},
      {"measurement": "solubility (mole fraction)", "setting": "in ethanol, 298.15 K", "result": 0.000117},
      {"measurement": "solubility (mole fraction)", "setting": "in ethanol, 303.15 K", "result": 0.000144},
      {"measurement": "solubility (mole fraction)", "setting": "in ethanol, 308.15 K", "result": 0.000175},
      {"measurement": "solubility (mole fraction)", "setting": "in ethanol, 313.15 K", "result": 0.000217},
      {"measurement": "solubility (mole fraction)", "setting": "in ethanol, 318.15 K", "result": 0.000264},
      {"measurement": "solubility (mole fraction)", "setting": "in ethanol, 323.15 K", "result": 0.000326},
      {"measurement": "solubility (mole fraction)", "setting": "in ethyl acetate, 283.15 K", "result": 0.000154},
      {"measurement": "solubility (mole fraction)", "setting": "in ethyl acetate, 288.15 K", "result": 0.000172},
      {"measurement": "solubility (mole fraction)", "setting": "in ethyl acetate, 293.15 K", "result": 0.000197},
      {"measurement": "solubility (mole fraction)", "setting": "in ethyl acetate, 298.15 K", "result": 0.000226},
      {"measurement": "solubility (mole fraction)", "setting": "in ethyl acetate, 303.15 K", "result": 0.000255},
      {"measurement": "solubility (mole fraction)", "setting": "in ethyl acetate, 308.15 K", "result": 0.000288},
      {"measurement": "solubility (mole fraction)", "setting": "in ethyl acetate, 313.15 K", "result": 0.000326},
      {"measurement": "solubility (mole fraction)", "setting": "in ethyl acetate, 318.15 K", "result": 0.000378},
      {"measurement": "solubility (mole fraction)", "setting": "in ethyl acetate, 323.15 K", "result": 0.000432},
      {"measurement": "solubility (mole fraction)", "setting": "in isopropanol, 283.15 K", "result": "5.13e-05"},
      {"measurement": "solubility (mole fraction)", "setting": "in isopropanol, 288.15 K", "result": "6.16e-05"},
      {"measurement": "solubility (mole fraction)", "setting": "in isopropanol, 293.15 K", "result": "7.5e-05"},
      {"measurement": "solubility (mole fraction)", "setting": "in isopropanol, 298.15 K", "result": "9.22e-05"},
      {"measurement": "solubility (mole fraction)", "setting": "in isopropanol, 303.15 K", "result": 0.000107},
      {"measurement": "solubility (mole fraction)", "setting": "in isopropanol, 308.15 K", "result": 0.00013},
      {"measurement": "solubility (mole fraction)", "setting": "in isopropanol, 313.15 K", "result": 0.000164},
      {"measurement": "solubility (mole fraction)", "setting": "in isopropanol, 318.15 K", "result": 0.000204},
      {"measurement": "solubility (mole fraction)", "setting": "in isopropanol, 323.15 K", "result": 0.000259},
      {"measurement": "solubility (mole fraction)", "setting": "in methanol, 283.15 K", "result": 0.000127},
      {"measurement": "solubility (mole fraction)", "setting": "in methanol, 288.15 K", "result": 0.000147},
      {"measurement": "solubility (mole fraction)", "setting": "in methanol, 293.15 K", "result": 0.000173},
      {"measurement": "solubility (mole fraction)", "setting": "in methanol, 298.15 K", "result": 0.000204},
      {"measurement": "solubility (mole fraction)", "setting": "in methanol, 303.15 K", "result": 0.000249},
      {"measurement": "solubility (mole fraction)", "setting": "in methanol, 308.15 K", "result": 0.000295},
      {"measurement": "solubility (mole fraction)", "setting": "in methanol, 313.15 K", "result": 0.000354},
      {"measurement": "solubility (mole fraction)", "setting": "in methanol, 318.15 K", "result": 0.000435},
      {"measurement": "solubility (mole fraction)", "setting": "in methanol, 323.15 K", "result": 0.000521},
      {"measurement": "solubility (mole fraction)", "setting": "in n-butanol, 283.15 K", "result": "8.77e-05"},
      {"measurement": "solubility (mole fraction)", "setting": "in n-butanol, 288.15 K", "result": 0.0001},
      {"measurement": "solubility (mole fraction)", "setting": "in n-butanol, 293.15 K", "result": 0.000116},
      {"measurement": "solubility (mole fraction)", "setting": "in n-butanol, 298.15 K", "result": 0.00014},
      {"measurement": "solubility (mole fraction)", "setting": "in n-butanol, 303.15 K", "result": 0.000169},
      {"measurement": "solubility (mole fraction)", "setting": "in n-butanol, 308.15 K", "result": 0.000204},
      {"measurement": "solubility (mole fraction)", "setting": "in n-butanol, 313.15 K", "result": 0.000254},
      {"measurement": "solubility (mole fraction)", "setting": "in n-butanol, 318.15 K", "result": 0.000316},
      {"measurement": "solubility (mole fraction)", "setting": "in n-butanol, 323.15 K", "result": 0.000408},
      {"measurement": "solubility (mole fraction)", "setting": "in n-propanol, 283.15 K", "result": "8.29e-05"},
      {"measurement": "solubility (mole fraction)", "setting": "in n-propanol, 288.15 K", "result": "9.58e-05"},
      {"measurement": "solubility (mole fraction)", "setting": "in n-propanol, 293.15 K", "result": 0.000114},
      {"measurement": "solubility (mole fraction)", "setting": "in n-propanol, 298.15 K", "result": 0.000136},
      {"measurement": "solubility (mole fraction)", "setting": "in n-propanol, 303.15 K", "result": 0.000164},
      {"measurement": "solubility (mole fraction)", "setting": "in n-propanol, 308.15 K", "result": 0.000202},
      {"measurement": "solubility (mole fraction)", "setting": "in n-propanol, 313.15 K", "result": 0.000253},
      {"measurement": "solubility (mole fraction)", "setting": "in n-propanol, 318.15 K", "result": 0.000315},
      {"measurement": "solubility (mole fraction)", "setting": "in n-propanol, 323.15 K", "result": 0.000391},
      {"measurement": "solubility (mole fraction)", "setting": "in tert-amyl alcohol, 283.15 K", "result": "7.86e-05"},
      {"measurement": "solubility (mole fraction)", "setting": "in tert-amyl alcohol, 288.15 K", "result": "9.12e-05"},
      {"measurement": "solubility (mole fraction)", "setting": "in tert-amyl alcohol, 293.15 K", "result": 0.000107},
      {"measurement": "solubility (mole fraction)", "setting": "in tert-amyl alcohol, 298.15 K", "result": 0.000122},
      {"measurement": "solubility (mole fraction)", "setting": "in tert-amyl alcohol, 303.15 K", "result": 0.00014},
      {"measurement": "solubility (mole fraction)", "setting": "in tert-amyl alcohol, 308.15 K", "result": 0.00017},
      {"measurement": "solubility (mole fraction)", "setting": "in tert-amyl alcohol, 313.15 K", "result": 0.000202},
      {"measurement": "solubility (mole fraction)", "setting": "in tert-amyl alcohol, 318.15 K", "result": 0.00024},
      {"measurement": "solubility (mole fraction)", "setting": "in tert-amyl alcohol, 323.15 K", "result": 0.00029},
      {"measurement": "solubility (mole fraction)", "setting": "in toluene, 283.15 K", "result": "4.91e-05"},
      {"measurement": "solubility (mole fraction)", "setting": "in toluene, 288.15 K", "result": "6.13e-05"},
      {"measurement": "solubility (mole fraction)", "setting": "in toluene, 293.15 K", "result": "7.24e-05"},
      {"measurement": "solubility (mole fraction)", "setting": "in toluene, 298.15 K", "result": "8.74e-05"},
      {"measurement": "solubility (mole fraction)", "setting": "in toluene, 303.15 K", "result": 0.000102},
      {"measurement": "solubility (mole fraction)", "setting": "in toluene, 308.15 K", "result": 0.000117},
      {"measurement": "solubility (mole fraction)", "setting": "in toluene, 313.15 K", "result": 0.000135},
      {"measurement": "solubility (mole fraction)", "setting": "in toluene, 318.15 K", "result": 0.000155},
      {"measurement": "solubility (mole fraction)", "setting": "in toluene, 323.15 K", "result": 0.00018}
    ]}
  ]
}
